Measured values as given in patent US8247211B2, “Glycopeptide antibiotics” (American Cyanamid Company, priority 2001, dated 2012).
Values after ≈ are worked out from the molar mass of the structure shown.

Key:
[1] = Anatomic pathology (heart and kidney histopathology) in mice; type: in vivo, CD-1 mice; conditions: 20 mg/kg intravenously daily for 9 days, microscopic histopathology on day 10
Procedure, shortened: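 Juvenile CD-1 mice (20 days old; 5 vehicle, 5 treated) received glycopeptide antibiotic 20 mg/kg i.v. daily for 9 days. Necropsied tissues formalin-fixed, paraffin-embedded, H&E stained and examined microscopically; findings graded slight to severe versus controls.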

[2] = tested on: Staphylococcus aureus-SMITH (GC 4543); assay: Acute lethal infection in mice (ED50); type: in vivo; conditions: female CD-1 mice, intraperitoneal challenge, intravenous dose 30 min. after infection, 7 day survival ratios
Procedure, shortened: (§1)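 Median effective dose is calculated from 7-day survival ratios pooled across three separate tests. Mice (female CD-1) receive an intraperitoneal bacterial challenge in broth or hog gastric mucin, then intravenous drug 30 min later, five animals per dose level.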

[3] = tested on: Enterococcus faecalis (GC 6189), vancomycin resistant strain; assay: Acute lethal infection in mice (ED50); type: in vivo; conditions: female CD-1 mice, intraperitoneal challenge, intravenous dose 30 min. after infection, 7 day survival ratios
Procedure, shortened: as §1

[4] = tested on: Streptococcus pneumoniae (GC 1894), penicillin resistant strain; assay: Acute lethal infection in mice (ED50); type: in vivo; conditions: female CD-1 mice, intraperitoneal challenge, intravenous dose 30 min. after infection, 7 day survival ratios
Procedure, shortened: as §1

Streptococcus sp. = assay: In vitro antibacterial evaluation: minimum inhibitory concentration (MIC), broth dilution method; type: cell-based; conditions: broth dilution, 5×10^5 CFU/mL, 18 hours at 35° C.
Procedure, shortened: (§2)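 MIC read as lowest drug level preventing visible growth. Organisms at 5×10^5 CFU/mL were exposed to a 64-0.06 μg/mL dilution series in Muller-Hinton II […] following NCCLS broth dilution standard M7-A2.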

Escherichia coli = assay: as above; type: cell-based; conditions: 5×10^5 CFU/mL, 18 hours at 35° C.
Procedure, shortened: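 Following NCCLS approved standard M7-A2, compounds are serially diluted from 64 to 0.06 μg/mL in Muller-Hinton II […] and inoculated at 5×10^5 CFU/mL; the MIC is the minimum concentration at which growth is inhibited.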

Staphylococcus sp. = assay: as above; type: cell-based; conditions: for MIC Staphylococcus aureus-SMITH (GC 4543): strain GC 4543; for MIC Staphylococcus haemolyticus (GC 4546): strain GC 4546; for MIC Coagulase Negative Staphylococcus (GC 4547): strain GC 4547; for MIC Coagulase Negative Staphylococcus (GC 4548): strain GC 4548; for MIC Coagulase Negative Staphylococcus (GC 4549): strain GC 4549; for MIC Coagulase Negative Staphylococcus (GC 4551): strain GC 4551; for MIC Coagulase Negative Staphylococcus (GC 6257): strain GC 6257
Procedure, shortened: as §2

Enterococcus sp. = assay: as above; type: cell-based; conditions: broth dilution, 5×10^5 CFU/mL, 18 hours at 35° C.
Procedure, shortened: as §2

[5] = type: in vivo; conditions: mice, 20 mg/kg intravenously daily for 9 days, serum on day 10
Protocol: 20-day-old CD-1 mice were divided into a vehicle control group (5 mice) and a treatment group (5 mice). Samples of glycopeptide antibiotics were administered at 20 mg/kg intravenously daily for 9 days. Animals were necropsied on day 10 Sera were analyzed for BUN (blood urea nitrogen), creatinine, AST (aspartic aminotransferase), and ALT (alanine aminotransferase) by routine, standard, automated methods using an Hitachi 747 chemistry analyzer.

[6] = broth dilution, 18 hours at 35° C.

Compound: CC(c1ccccc1)C1NC(=O)CNC(=O)C(CO)NC(=O)C(C(O)C2CNC(=N)N2C2OC(CO)C(O)C(O)C2O)NC(=O)C(C(O)C2CNC(=N)N2)NC(=O)C(Cc2ccc(OC3OC(CO)C(OC4OC5COC(c6ccccc6)OC5C(O)C4O)C(O)C3O)cc2)NC1=O (stereo not drawn) [Example 104, Cyclo[glycyl-β-methylphenylalanyl-O-[4-O-(4,6-O-benzylidenehexopyranosyl)hexopyranosyl]-tyrosyl-3-(2-iminoimidazolidin-4-yl)seryl-3-(3-hexopyranosyl-2-iminoimidazolidin-4-yl)-serylseryl]]
- Anatomical Pathology (Day 10), Heart [1]: +++
- Anatomical Pathology (Day 10), Kidney [1]: +++
- median effective dose (ED50), Staphylococcus aureus-SMITH (GC 4543) [2]: 0.19 mg/kg
- median effective dose (ED50), Enterococcus faecalis (GC 6189) [3]: 0.39-0.63
- median effective dose (ED50), Streptococcus pneumoniae (GC 1894) [4]: 0.22 mg/kg
- MIC Streptococcus pneumoniae (GC 1894) (Streptococcus sp.): <0.12 µg/mL
- MIC Streptococcus pneumoniae (GC 4565) (Streptococcus sp.): <0.12 µg/mL
- MIC Streptococcus pneumonine (ATCC 6301) (Streptococcus sp.): <0.12 µg/mL
- MIC Streptococcus pyogenes (GC 4563) (Streptococcus sp.): <0.12 µg/mL
- MIC Escherichia coli (GC 4560) (Escherichia coli): 0.5 to 1 µg/mL
- MIC Staphylococcus aureus (ATCC 29213) (Staphylococcus sp.; strain ATCC 29213): 1 µg/mL (≈ 0.723 µM)
- MIC Staphylococcus aureus (GC 1131) (Staphylococcus sp.; strain GC 1131): 2 µg/mL (≈ 1.45 µM)
- MIC Staphylococcus aureus (GC 3051) (Staphylococcus sp.; strain GC 3051): 1 µg/mL (≈ 0.723 µM)
- MIC Staphylococcus aureus (GC 3053) (Staphylococcus sp.; strain GC 3053): 1 µg/mL (≈ 0.723 µM)
- MIC Staphylococcus aureus (GC 4541) (Staphylococcus sp.; strain GC 4541): 1 µg/mL (≈ 0.723 µM)
- MIC Staphylococcus aureus (GC 4542) (Staphylococcus sp.; strain GC 4542): 0.5 µg/mL (≈ 0.361 µM)
- MIC Staphylococcus aureus-SMITH (GC 4543) (Staphylococcus sp.; 18 hours at 35° C.): 0.5 to 1 µg/mL
- MIC Staphylococcus aureus-SMITH (GC 4543) (Staphylococcus sp.; [6]): 0.5 to 1 µg/mL
- MIC Staphylococcus aureus (GC 4544) (Staphylococcus sp.; strain GC 4544): 1 µg/mL (≈ 0.723 µM)
- MIC Staphylococcus aureus (GC 4545) (Staphylococcus sp.; strain GC 4545): 0.5 to 1 µg/mL
- MIC Staphylococcus haemolyticus (GC 4546) (Staphylococcus sp.): 0.5 µg/mL (≈ 0.361 µM)
- MIC Staphylococcus haemolyticus (GC 4546) (Staphylococcus sp.; [6]): 0.5 µg/mL (≈ 0.361 µM)
- MIC Coagulase Negative Staphylococcus (GC 4547) (Staphylococcus sp.): 1 µg/mL (≈ 0.723 µM)
- MIC Coagulase Negative Staphylococcus (GC 4547) (Staphylococcus sp.; [6]): 1 µg/mL (≈ 0.723 µM)
- MIC Coagulase Negative Staphylococcus (GC 4548) (Staphylococcus sp.): 0.5 to 1 µg/mL
- MIC Coagulase Negative Staphylococcus (GC 4548) (Staphylococcus sp.; [6]): 0.5 to 1 µg/mL
- MIC Coagulase Negative Staphylococcus (GC 4549) (Staphylococcus sp.): 0.5 µg/mL (≈ 0.361 µM)
- MIC Coagulase Negative Staphylococcus (GC 4549) (Staphylococcus sp.; [6]): 0.5 µg/mL (≈ 0.361 µM)
- MIC Coagulase Negative Staphylococcus (GC 4551) (Staphylococcus sp.): 1 µg/mL (≈ 0.723 µM)
- MIC Coagulase Negative Staphylococcus (GC 4551) (Staphylococcus sp.; [6]): 1 µg/mL (≈ 0.723 µM)
- MIC Coagulase Negative Staphylococcus (GC 6257) (Staphylococcus sp.): 0.5 µg/mL (≈ 0.361 µM)
- MIC Coagulase Negative Staphylococcus (GC 6257) (Staphylococcus sp.; [6]): 0.5 µg/mL (≈ 0.361 µM)
- MIC Enterococccus avium (GC 4558) (Enterococcus sp.): 2 to 4 µg/mL
- MIC Enterococccus faecalis (ATCC 29212) (Enterococcus sp.): 2 to 4 µg/mL
- MIC Enterococccus faecalis (GC 2691) (Enterococcus sp.): 4 µg/mL (≈ 2.89 µM)
- MIC Enterococccus faecalis (GC 3059) (Enterococcus sp.): 4 µg/mL (≈ 2.89 µM)
- MIC Enterococccus faecalis (GC 4552) (Enterococcus sp.): 4 µg/mL (≈ 2.89 µM)
- MIC Enterococccus faecalis (GC 4553) (Enterococcus sp.): 4 µg/mL (≈ 2.89 µM)
- MIC Enterococccus faecalis (GC 4554) (Enterococcus sp.): 4 µg/mL (≈ 2.89 µM)
- MIC Enterococccus faecalis (GC 6189) (Enterococcus sp.): 2 µg/mL (≈ 1.45 µM)
- MIC Enterococccus faecium (GC 2243) (Enterococcus sp.): 2 µg/mL (≈ 1.45 µM)
- MIC Enterococccus faecium (GC 4556) (Enterococcus sp.): 2 to 4 µg/mL
- MIC Enterococccus faecium (GC 4557) (Enterococcus sp.): 2 µg/mL (≈ 1.45 µM)
- MIC Enterococcus faecalis (GC 2242) (Enterococcus sp.): 2 µg/mL (≈ 1.45 µM)
- Clinical Chemistry (Day 10) % of Control, AST [5]: +87%
- Clinical Chemistry (Day 10) % of Control, Creatinine [5]: +65%
